Reference: patent US20120035196A1, “CARBOXYLIC ACID COMPOUND” (priority 2009, published 2012)

Legend:
Male ICR mice = assay: Normal mice single oral glucose tolerance test; format: in vivo; settings: Mus musculus, 0.5 h, orally 10 mg/kg 30 minutes before glucose loading (2 g/kg), 30 minutes after glucose loading, relative to control group, read-out: Blood glucose increase inhibition rate
Method: Test Method 3: Normal Mice Single Oral Glucose Tolerance Test
The present test was to examine the blood glucose increase inhibiting action of the test compound after glucose loading, using normal mice. Hereinafter, the test method will be shown.
Male ICR mice (6 weeks of age) after 1 week of acclimatization were subjected to overnight fasting and used as test animals. The test compound was made into a 0.01 M aqueous sodium hydroxide solution and orally administered at a dose of 10 mg/kg 30 minutes before the glucose loading (2 g/kg). A 0.01 M aqueous sodium hydroxide solution was administered to the control group. The blood glucose increase inhibitory ratio (%) after 30 minutes of glucose loading was calculated, relative to the control group.
When the compound of Example 72 described in Pamphlet of International Publication WO2005/087710 was orally administered at 10 mg/kg by the same method as the test method 3 above, the blood glucose increase inhibition rate was measured and found to be 9%, whereas when the compound was orally administered at 30 mg/kg, the blood glucose increase inhibition rate was 20%. […] Further, in the present test, a minimum administration amount showing a blood glucose increase inhibition rate of 20% or more or a minimum administration amount showing a significance (Dunnet multiple comparison test) relative to a control was taken as a minimum effective dose (MED).

human GPR40 = target: T1, human GPR40 (Homo sapiens, UniProt O14842, R211H); assay: Measurement of GPR40 agonistic activity (FLIPR, change in intracellular calcium concentration); format: cell-based; settings: CHO cell strain expressing human GPR40; changes in fluorescence intensity after 1 minute
T1 construct: expressed in transfected cells
T1 sequence (O14842 whole entry R211H): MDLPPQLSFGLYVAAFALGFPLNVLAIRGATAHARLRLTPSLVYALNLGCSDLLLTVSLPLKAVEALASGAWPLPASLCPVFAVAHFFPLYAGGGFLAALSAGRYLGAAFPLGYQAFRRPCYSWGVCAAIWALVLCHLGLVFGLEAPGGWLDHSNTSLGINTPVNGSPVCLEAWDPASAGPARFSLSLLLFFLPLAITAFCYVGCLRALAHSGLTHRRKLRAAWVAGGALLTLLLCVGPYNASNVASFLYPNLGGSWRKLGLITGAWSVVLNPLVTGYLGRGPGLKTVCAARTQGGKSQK
Text: Test Method 1: Measurement of GPR40 Agonistic Activity i) Cloning of Human GPR40
A full-length sequence of GPR40 was obtained by PCR method using human genomic DNA (Clontech) as a template in accordance with the procedure shown below.
An oligonucleotide consisting of the base sequence represented by SEQ ID NO: 1 was used as the forward primer, and an oligonucleotide consisting of the base sequence represented by SEQ ID NO: 2 as the reverse primer. In this connection, a base sequence comprising a XbaI recognition region was added to the respective 5′-termini of the aforementioned forward primer and reverse primer. PCR was carried out in the presence of 5% dimethylsulfoxide (DMSO) using a Taq DNA polymerase (Ex Taq DNA polymerase; Takara Bio), by repeating 30 times of a cycle consisting of 94° C. (15 seconds)/55° C. (30 seconds)/72° C. (1 minute). As a result, a DNA fragment of about 0.9 kbp was amplified. This DNA fragment was digested with XbaI and then inserted into the XbaI site of a plasmid pEF-BOS-dhfr (Nucleic acids Research, 18, 5322, 1990), thereby obtaining a plasmid pEF-BOS-dhfr-GPR40.
The base sequence of the GPR40 gene in the pEF-BOS-dhfr-GPR40 was determined by the dideoxy terminator method using a DNA sequencer (ABI 377 DNA Sequencer, Applied Biosystems). The base sequence of the GPR40 gene was represented by the base sequence SEQ ID NO: 3. […]
ii) Preparation of GPR40 Stable Expression Cell
As the cell for expressing GPR40 protein, a CHO dhfr cell (a dihydrofolate reductase (dhfr) gene-deficient CHO cell) was used. Also, as the plasmid for expressing GPR40 protein, the plasmid pEF-BOS-dhfr-GPR40 obtained in the aforementioned i) was used. The CHO dhfr cell was inoculated into an αMEM medium containing 10% fetal calf serum (FCS) using a 6 well plate (Asahi Techno Glass) and cultured overnight to a confluence of 80 to 90%, and then 2 μg per well of the plasmid pEF-BOS-dhfr-GPR40 was gene-transferred using a transfection reagent (Lipofectamine 2000; Invitrogen). After 24 hours of culturing from the gene transfer, the cells were diluted and inoculated again. […] After 20 days of culturing, the formed colonies of cells were individually recovered and cultured to obtain CHO cells stably expressing GPR40. From these, cells having high reactivity for intrinsic ligands oleic acid and linoleic acid were selected. […]
iii) Measurement of GPR40 Agonistic Activity
The present test was measured by FLIPR (registered trademark, Molecular Devices) using a change in intracellular calcium concentration as the index. Hereinafter, the test method will be shown.
A CHO cell strain in which human GPR40 was expressed was inoculated into a 384 well black plate (Becton Dickinson) at 6×10^3 cells per well portion and cultured overnight in a CO2 incubator.
Using a Calcium-3 assay kit (Molecular Devices), one bottle of the phosphorescent pigment was dissolved in 10 ml of HBSS-HBEPES buffer (pH 7.4, 1×HBSS, 20 mM HEPES, Invitrogen). 35.68 mg of Probenecid (Sigma) was dissolved in 250 μl of 1 M NaOH and adjusted by adding 250 μl of the HBSS-HEPES buffer. A phosphorescent pigment solution was prepared by mixing 16 ml of HBSS-HEPES buffer, 640 μl of the phosphorescent pigment and 32 μl of probenecid per one plate. The medium was discarded from the plate, and the phosphorescent pigment solution was dispensed at 40 μl per well portion and then incubated at room temperature for 2 hours. Each compound to be tested was dissolved in DMSO and then diluted with HBSS-HEPES buffer and dispensed in 10 μl portions into the plate, thereby starting the reaction, and changes in the intracellular calcium concentration were measured by FLIPR. The EC50 value of each compound to be tested was calculated by a dose-response curve of changes in fluorescence intensity after 1 minute of the measurement.

Compound | EC50 (human GPR40) [nM] | inhibition in vivo at 10 mg/kg (Male ICR mice) [%]
Cc1cc(OC[C@@H](O)CO)cc(C)c1-c1cccc(COc2ccc3c(c2)OC2(CC2)C3CC(=O)O)c1C (single isomer, unassigned) [Example 25-5a] | 350 | –
Cc1cc(OCCC(C)(C)O)cc(C)c1-c1cccc(COc2ccc3c(c2)OC2(CC2)C3CC(=O)O)c1C (stereo not drawn) [Example 21, sodium (6-{[4′-(3-hydroxy-3-methylbutoxy)-2,2′,6′-trimethylbiphenyl-3-yl]methoxy}-3H-spiro[1-benzofuran-2,1′-cyclopropan]-3-yl)acetate] | 810 | 43
Cc1cccc(C)c1-c1cccc(COc2ccc3c(c2)-c2ccccc2C3CC(=O)O)c1C (stereo not drawn) [Example 6, 0.5 calcium {3-[(2,2′,6′-trimethylbiphenyl-3-yl)methoxy]-9H-fluoren-9-yl}acetate] | 780 | 35
Cc1cc(OCC[C@H](O)CO)cc(C)c1-c1cccc(COc2ccc3c(c2)OC2(CC2)C3CC(=O)O)c1C (single isomer, unassigned) [Example 25-7a] | 490 | –
Cc1cc(OC[C@H](O)CO)cc(C)c1-c1cccc(COc2ccc3c(c2)-c2ccccc2C3CC(=O)O)c1C (stereo partly drawn) [Example 8, sodium {3-[(4′-{[(2R)-2,3-dihydroxypropyl]oxy}-2,2′,6′-trimethylbiphenyl-3-yl)methoxy]-9H-fluoren-9-yl}acetate] | 610 | 25
Cc1cc(OCCO)cc(C)c1-c1cccc(COc2ccc3c(c2)-c2ccccc2C3CC(=O)O)c1C (stereo not drawn) [Example 2, sodium (3-{[4′-(2-hydroxyethoxy)-2,2′,6′-trimethylbiphenyl-3-yl]methoxy}-9H-fluoren-9-yl)acetate] | 520 | 37
Cc1cc(OC[C@H](O)CO)cc(C)c1-c1cccc(COc2ccc3c(c2)CC2(CC2)C3CC(=O)O)c1C (stereo partly drawn) [Example 4, sodium {5′-[(4′-{[(2R)-2,3-dihydroxypropyl]oxy}-2,2′,6′-trimethylbiphenyl-3-yl)methoxy]-1′,3′-dihydrospiro[cyclopropan-1,2′-inden]-1′-yl}acetate] | 250 | 20
Cc1nc(OCCO)nc(C)c1-c1cccc(COc2ccc3c(c2)CC2(CC2)C3CC(=O)O)c1C (stereo not drawn) [Example 23, [5′-({3-[2-(2-hydroxyethoxy)-4,6-dimethylpyrimidin-5-yl]-2-methylbenzyl}oxy)-1′,3′-dihydrospiro[cyclopropan-1,2′-inden]-1′-yl]acetic acid] | 520 | 20
Cc1cc(OC[C@H](O)CO)cc(C)c1-c1cccc(COc2ccc3c(c2)OC2(CC2)C3CC(=O)O)c1C (stereo partly drawn) [Example 22, sodium {6-[(4′-{[(2R)-2,3-dihydroxypropyl]oxy}-2,2′,6′-trimethylbiphenyl-3-yl)methoxy]-3H-spiro[1-benzofuran-2,1′-cyclopropan]-3-yl}acetate] | 250 | 34
Cc1cc(OCC[C@H](O)CO)cc(C)c1-c1cccc(COc2ccc3c(c2)OC2(CC2)C3CC(=O)O)c1C (single isomer, unassigned) [Example 25-7b] | 330 | –
Cc1cc(OC[C@@H](O)CO)cc(C)c1-c1cccc(COc2ccc3c(c2)OC2(CC2)C3CC(=O)O)c1C (single isomer, unassigned) [Example 25-5b] | 260 | –
Cc1cc(OCCO)cc(C)c1-c1cccc(COc2ccc3c(c2)OC2(CC2)C3CC(=O)O)c1C (stereo not drawn) [Example 20, sodium (6-{[4′-(2-hydroxyethoxy)-2,2′,6′-trimethylbiphenyl-3-yl]methoxy}-3H-spiro[1-benzofuran-2,1′-cyclopropan]-3-yl)acetate] | 490 | 40
Cc1cc(OCCO)cc(C)c1-c1cccc(COc2ccc3c(c2)OC2(CC2)C3CC(=O)O)c1C (stereo not drawn) [Example 25-3b] | 190 | –
Cc1cc(OCCC(C)(C)O)cc(C)c1-c1cccc(CNc2ccc3c(c2)CC2(CC2)C3CC(=O)O)c1C (stereo not drawn) [Example 2-2] | 790 | 34
Cc1cc(OCCO)cc(C)c1-c1cccc(COc2ccc3c(c2)OC2(CC2)C3CC(=O)O)c1C (stereo not drawn) [Example 25-3a] | 560 | –

Second part, led by results:

EC50 (human GPR40) [nM] | Compound | inhibition in vivo at 10 mg/kg (Male ICR mice) [%]
430 | Cc1cc(OCC[C@@H](O)CO)cc(C)c1-c1cccc(COc2ccc3c(c2)OC2(CC2)C3CC(=O)O)c1C (stereo partly drawn) [Example 22-2] | 34
590 | Cc1nc(OCCC(C)(C)O)nc(C)c1-c1cccc(COc2ccc3c(c2)CC2(CC2)C3CC(=O)O)c1C (stereo not drawn) [Example 8-12] | 24
610 | COCCOc1cc(C)c(-c2cccc(CNc3ccc4c(c3)CC3(CC3)C4CC(=O)O)c2C)c(C)c1 (stereo not drawn) [Example 8-3] | 21
710 | COCCCOc1cc(C)c(-c2cccc(COc3ccc4c(c3)OC3(CC3)C4CC(=O)O)c2C)c(C)c1 (stereo not drawn) [Example 21-3] | 32
750 | COCCOc1cc(C)c(-c2cccc(COc3ccc4c(c3)OC3(CC3)C4CC(=O)O)c2C)c(C)c1 (stereo not drawn) [Example 21-1] | 30
470 | Cc1cc(OCC[C@H](O)CO)cc(C)c1-c1cccc(COc2ccc3c(c2)OC2(CC2)C3CC(=O)O)c1C (stereo partly drawn) [Example 22-3] | 38
270 | Cc1cc(OC[C@@H](O)CO)cc(C)c1-c1cccc(COc2ccc3c(c2)OC2(CC2)C3CC(=O)O)c1C (stereo partly drawn) [Example 22-1] | 35
210 | Cc1cc(OCCO)cc(C)c1-c1cccc(CNc2ccc3c(c2)CC2(CC2)C3CC(=O)O)c1C (single isomer, unassigned) [Example 25b, [5′-({[4′-(2-hydroxyethoxy)-2,2′,6′-trimethylbiphenyl-3-yl]methyl}amino)-1′,3′-dihydrospiro[cyclopropan-1,2′-inden]-1′-yl]acetic acid] | 33
810 | CCOCCOc1cc(C)c(-c2cccc(COc3ccc4c(c3)OC3(CC3)C4CC(=O)O)c2C)c(C)c1 (stereo not drawn) [Example 21-2] | 23
